Converted amounts (≈) assume the structure as drawn.
Key:
Format in all cases: cell-based
[1] = tested on: Serr. Mar. IMM-16; assay: Minimal Inhibitory Concentration, Serr. Mar. IMM-16
[2] = tested on: Prot. Vulg. 1810; assay: Minimal Inhibitory Concentration, Prot. Vulg. 1810
[3] = tested on: Klebs. Pneu. MGH-2; assay: Minimal Inhibitory Concentration, Klebs. Pneu. MGH-2
[4] = tested on: Pseudo. Aeru BRK; assay: Minimal Inhibitory Concentration, Pseudo. Aeru BRK
[5] = tested on: Staph Aureus UC-76; assay: Minimal Inhibitory Concentration, Staph Aureus UC-76; details: Staphylococcus aureus, UC76
[6] = tested on: E. Coli Brig; assay: Minimal Inhibitory Concentration, E. Coli Brig; details: Escherichia coli
[7] = tested on: Pseudo. Aeru UI-18; assay: Minimal Inhibitory Concentration, Pseudo. Aeru UI-18
[8] = tested on: E. Coli Vogel; assay: Minimal Inhibitory Concentration, E. Coli Vogel; details: Escherichia coli
[9] = tested on: Pseudo. Aeru 28; assay: Minimal Inhibitory Concentration, Pseudo. Aeru 28
[10] = tested on: Entero C. IMM-11; assay: Minimal Inhibitory Concentration, Entero C. IMM-11

| SMILES | MIC [1] [µg/mL] | MIC [2] [µg/mL] | MIC [3] [µg/mL] | MIC [4] [µg/mL] | MIC [5] [µg/mL] | MIC [6] [µg/mL] | MIC [7] [µg/mL] | MIC [8] [µg/mL] | MIC [9] [µg/mL] | MIC [10] [µg/mL] |
| --- | --- | --- | --- | --- | --- | --- | --- | --- | --- | --- |
| CCOC(=O)CNC(=O)Nc1ccc2[nH]c(=O)c(C(=O)N[C@@H](C(=O)N[C@@H]3C(=O)N4[C@@H]3SC(C)(C)[C@@H]4C(=O)O)c3ccc(O)cc3)cc2c1 | 12.5 (≈ 18.4 µM) | 6.3 (≈ 9.26 µM) | 12.5 (≈ 18.4 µM) | 3.1 (≈ 4.55 µM) | 1.6 (≈ 2.35 µM) | 12.5 (≈ 18.4 µM) | 3.1 (≈ 4.55 µM) | 6.3 (≈ 9.26 µM) | 3.1 (≈ 4.55 µM) | 12.5 (≈ 18.4 µM) |
| CCNC(=O)CNC(=O)Nc1ccc2[nH]c(=O)c(C(=O)N[C@@H](C(=O)N[C@@H]3C(=O)N4[C@@H]3SC(C)(C)[C@@H]4C(=O)O)c3ccc(O)cc3)cc2c1 | 12.5 (≈ 18.4 µM) | 1.6 (≈ 2.35 µM) | 12.5 (≈ 18.4 µM) | 1.6 (≈ 2.35 µM) | 0.8 (≈ 1.18 µM) | 6.3 (≈ 9.27 µM) | 1.6 (≈ 2.35 µM) | 1.6 (≈ 2.35 µM) | 1.6 (≈ 2.35 µM) | 3.1 (≈ 4.56 µM) |
| CC1(C)S[C@@H]2[C@H](NC(=O)[C@H](NC(=O)c3cc4cc(NC(=O)NCC(N)=O)ccc4[nH]c3=O)c3ccc(O)cc3)C(=O)N2[C@H]1C(=O)O | 12.5 (≈ 19.2 µM) | 1.6 (≈ 2.46 µM) | 12.5 (≈ 19.2 µM) | 0.8 (≈ 1.23 µM) | 0.8 (≈ 1.23 µM) | 6.3 (≈ 9.67 µM) | 1.6 (≈ 2.46 µM) | 1.6 (≈ 2.46 µM) | 0.8 (≈ 1.23 µM) | 6.3 (≈ 9.67 µM) |
| CCNC(=O)Nc1ccc2[nH]c(=O)c(C(=O)N[C@@H](C(=O)N[C@@H]3C(=O)N4[C@@H]3SC(C)(C)[C@@H]4C(=O)O)c3ccc(O)cc3)cc2c1 [A CH3 CH2, N-[6-[[(Ethylamino)carbonyl]amino]-1,2-dihydro-2-oxo-3-quinolinylcarbonyl]amoxicillin] | 6.3 (≈ 10.1 µM) | 1.6 (≈ 2.57 µM) | 6.3 (≈ 10.1 µM) | 1.6 (≈ 2.57 µM) | 0.4 (≈ 0.642 µM) | 3.1 (≈ 4.98 µM) | 1.6 (≈ 2.57 µM) | 1.6 (≈ 2.57 µM) | 0.4 (≈ 0.642 µM) | 3.1 (≈ 4.98 µM) |
| CCNC(=O)Nc1ccc2[nH]cc(C(=O)N[C@@H](C(=O)N[C@@H]3C(=O)N4[C@@H]3SC(C)(C)[C@@H]4C(=O)O)c3ccc(O)cc3)c(=O)c2c1 [B CH3 CH2, N-[6-[[(Ethylamino)carbonyl]amino]-1,4-dihydro-4-oxo-3-quinolinylcarbonyl]amoxicillin] | 1.6 (≈ 2.57 µM) | 0.8 (≈ 1.28 µM) | 3.1 (≈ 4.98 µM) | 0.4 (≈ 0.642 µM) | 0.8 (≈ 1.28 µM) | 6.3 (≈ 10.1 µM) | 3.1 (≈ 4.98 µM) | 0.4 (≈ 0.642 µM) | 0.8 (≈ 1.28 µM) | 3.1 (≈ 4.98 µM) |

From patent publication US4374138A, “Antibacterial amide compounds, compositions, and methods of use” (Warner-Lambert Company, priority 1981, dated 1983)
